Test results from patent publication US20240208898A1, “ENAMINE N-OXIDES: SYNTHESIS AND APPLICATION TO HYPOXIA-RESPONSIVE PRODRUGS AND IMAGING AGENTS” (DANA-FARBER CANCER INSTITUTE, INC., priority 2021, published 2024).

Key:
[1] = Assay evaluating the importance of enamine N-oxide unsaturation; format: physicochemical; details: reductants B2(OH)4 or Fe^2+, 100 mM HEPES, pH 7.4, HPLC
Procedure: Enamine N-oxide 6 or alkyl N-oxide S4 (50 μL, 4 mM in water; 200 μM final concentration) were added to a HEPES buffered solution (750 μL, 100 mM HEPES, pH 7.4; 1 mL final volume) in an HPLC vial. N-oxide reduction was initiated by adding a solution of tetrahydroxydiboron (200 μL, 200 nmol, 1 equiv, 1 mM in ethanol) and the resulting solution was incubated at room temperature. After 1 hour, solutions were analyzed by HPLC (C18 column, 4.6×50 mm, 2.4 μm particle size, 1 mL/minute flow rate, eluent: gradient H2O+0.1% TFA (1 minute), gradient 0→100% MeCN/H2O+0.1% TFA (4 minutes), MeCN+0.1% TFA (1 minute)). p-Cresol was quantified by its absorbance at 280 nm.

human liver microsomes = experiment: In vitro microsomal reduction assay; format: in vitro ADME; details: hypoxic vs normoxic, 2-nitroaniline released, absorbance at λ=412 nm
Procedure: All reactions were prepared and carried out in a semi-micro spectrophotometer quartz cell fitted with a septum screw cap (Starna Cells). For anaerobic conditions, all solutions were degassed for 30 minutes by sparging with nitrogen. Cells were maintained under anaerobic conditions using nitrogen lines connected to a nitrogen gas manifold or using a nitrogen-filled balloon. In experiments requiring normoxic conditions, the quartz cells were left open to ambient atmosphere. Unless otherwise stated, reactions were prepared as follows. A solution of human liver microsomes (10 μL, 20 mg/mL in phosphate buffer, pH 7.4, Corning; 200 μg/mL final concentration) followed by a solution of NADPH (16.7 μL, 60 mM in 10 mM NaOH solution; 1 mM final concentration) was added to a phosphate buffered solution ([…], 100 mM phosphate buffer, pH 7.4; 1 mL final volume) at room temperature. After 1 hour, reactions were initiated by the addition of a stock solution of the 2-nitroaniline enamine N-oxide probes 32a-f (50 μL, 4 mM in phosphate buffer, pH 7.4; 200 μM final concentration). […]
Heat-inactivated microsomes were prepared for control experiments by heating a solution of human liver microsomes (20 mg/mL in phosphate buffer, pH 7.4, Corning) to 45° C. for 30 minutes. […]

[2] = Enamine N-oxides with reducing agents; format: physicochemical; details: probe 200 μM
Procedure: A stock solution of 2-nitroaniline enamine N-oxide probe 32c (50 μL, 4 mM in 100 mM phosphate buffer, pH 7.4; 200 μM final concentration) was added to a phosphate buffered solution (850 μL, 100 mM phosphate, pH 7.4; 1 mL final volume) in a semi-micro quartz cell open to ambient atmosphere. A solution of glutathione (100 μL, 50 mM in phosphate buffer, pH 7.4; 5 mM final concentration) or cysteine (100 μL, 50 mM in phosphate buffer, pH 7.4; 5 mM final concentration) or tetrahydroxydiboron (100 μL, […] in methanol; 200 μM final concentration) were added to the solution. Reactions with glutathione or cysteine were incubated at 37° C. The reaction with tetrahydroxydiboron was carried out at room temperature. Wavelength scans (400-550 nm) were recorded at several time points (0, 1, and 2 hours).

[3] = Assay evaluating the stability of enamine N-oxides to metal cations; format: physicochemical; details: 200 μM, 2 mM cations, 1 h, room temperature, 100 mM HEPES pH 7.4; Fe^2+ with 10 mM sodium dithionite
Procedure: Enamine N-oxide 3a (50 μL, 4 mM in water; 200 μM final concentration) was added to a HEPES buffered solution (946 μL, 100 mM HEPES, pH 7.4; 1 mL final volume) in an HPLC vial. A solution of metal cation (4 μL, 500 mM in water, 2 mM final concentration) was then added and the solution was incubated at room temperature. After 1 hour, solutions were analyzed by HPLC (C18 column, 4.6×50 mm, 2.4 μm particle size, 1 mL/minute flow rate, eluent: gradient H2O+0.1% TFA (1 minute), gradient 0→100% MeCN/H2O+0.1% TFA (4 minutes), MeCN+0.1% TFA (1 minute)). p-Cresol was quantified by its absorbance of 280 nm.
The following cations were assayed using this procedure: sodium chloride, potassium chloride, calcium chloride, magnesium chloride, manganese (II) chloride, cobalt (II) sulfate, zinc (II) chloride, nickel (II) acetate, and iron (III) chloride.
For iron (II) sulfate, a solution of iron (II) sulfate (2 μL, 1 M in 1 N HCl; 2 mM final concentration) was added followed by a solution of sodium dithionite (10 μL, 1 M in 1 N NaOH; 10 mM final concentration).

[4] = Degradation studies of isolated enamine N-oxides in solvent at 60° C.; format: physicochemical; details: 6 hours, NMR
Procedure: Degradation studies were performed using isolated enamine N-oxides (5:5′, 15:1). An LC-MS vial was charged with a 0.1 M solution of enamine N-oxides (23.9 mg, 100 μmol) in the reaction solvent of interest and heated to 60° C. for 6 hours. After heating, the reaction mixture was concentrated under reduced pressure and dissolved in CDCl3. The amounts of enamine N-oxides (5 and 5′) and p-fluorophenol (4) were determined by ^1H and ^19F-NMR integrations using benzotrifluoride as an internal standard. Regioisomer ratios in different solvents were determined by ^1H-NMR integrations of vicinal versus geminal olefinic protons.

[5] = Nucleophilic trapping experiment with benzyl mercaptan; format: physicochemical; details: benzyl mercaptan (10 equiv), room temperature
Procedure: A round-bottom flask was charged with (E)-N,N-diethyl-4-phenyl-3-(p-tolyloxy)but-1-en-1-amine oxide (S6, 26.0 mg, 79.8 μmol, 1 equiv) and dissolved with chloroform-d (773 μL) at room temperature. Benzylmercaptan (93.7 μL, 798 μmol, 10.0 equiv) was then added via syringe. After 5 minutes, analysis by TLC indicated no reduction by benzylmercaptan. Solid bis(pinacolato)diboron (20.3 mg, 79.8 μmol, 1.00 equiv) was then added in one portion at room temperature. After 15 minutes, the reaction was directly loaded onto a silica gel column. The reaction mixture was purified by flash column chromatography (eluent: 100% chloroform) to provide aldehyde S7 (20.2 mg, 94%) as an off-white solid. ^1H NMR (500 MHz, CDCl3, 25° C.): δ 9.51 (dd, J=2.5, 1.4 Hz, 1H), 7.33-7.18 (m, 8H), 7.14-7.08 (m, 2H), 3.68 (q, J=13.4, 10.4 Hz, 2H), 3.20 (tdd, J=8.1, 6.5, 5.6 Hz, 1H), 2.97 (dd, J=13.7, 6.4 Hz, 1H), 2.78 (dd, J=13.8, 8.2 Hz, 1H), 2.60-2.40 (m, 2H). ^13C NMR (126 MHz, CDCl3, 25° C.): δ 200.7, 138.6, 138.1, 129.6, 129.2, 128.8, 128.7, 127.4, 127.0, 47.8, 42.3, 40.5, 36.1. FTIR (thin film) cm^−1: 3026 (w), 2922 (w), 1722 (s), 1494 (m), 1453 (m), 700 (s). HRMS (ESI) (m/z): calc'd for C17H19OS [M+H]^+: 271.1151, found: 271.1149. TLC (100% chloroform), Rf: 0.45 (UV, KMnO4).

[6] = Thermal decomposition of enamine N-oxide (Cope elimination); format: physicochemical; details: 60° C. in CDCl3 for 1 h
Procedure: A 1-dram vial was charged with enamine N-oxide S1 (90.0 mg, 179 μmol, 1 equiv) and dissolved in chloroform-d (1.79 mL). The reaction vial was flushed with nitrogen, sealed with a cap and Parafilm, and heated to 60° C. After 1 hour, the oil bath was removed and the reaction was cooled to room temperature. The reaction mixture was purified by flash column chromatography on silica gel (eluent: 5% CMA in chloroform). Fractions containing the desired compound were combined and the solvent was removed under reduced pressure at 0° C. with a rotary evaporator to provide the product S2 (14.9 mg, 34%) as an off-white solid. ^1H NMR (500 MHz, CDCl3, 25° C.): δ 7.94 (d, J=8.3, 1H), 7.86 (d, J=7.3, 1H), 7.79 (d, J=7.9, 1H), 7.55-7.35 (m, 4H), 7.31 (d, J=9.6, 1H), 6.16 (dd, J=36.1, 9.7, 1H), 4.08 (d, J=14.0, 2H), 3.65 (s, 3H). ^13C NMR (126 MHz, CDCl3, 25° C.): δ 165.7 (d, J=277.1), 134.2, 132.0, 130.7 (d, J=3.0), 130.4 (d, J=3.2), 129.1, 128.6, 128.1, 126.8, 126.1, 125.7, 123.6, 100.2 (d, J=8.1), 52.6, 36.5 (d, J=26.2). ^19F NMR (471 MHz, CDCl3, 25° C.): δ −89.5. FTIR (thin film) cm^−1: 2922 (m), 2855 (w), 1662 (m), 1569 (w), 1408 (m), 1140 (s), 779 (s). HRMS (ESI) (m/z): calc'd for C15H15FNO [M+H]^+: 244.1132, found: 244.1129. TLC (5% CMA/chloroform), Rf: 0.30 (UV, KMnO4).
A 1-dram vial was charged with enamine N-oxide S1 (90.0 mg, 179 μmol, 1 equiv) and dissolved in chloroform-d (1.79 mL). […]

CC[N+]([O-])(CC)CCCOc1ccc(C)cc1 [alkyl N-oxide S4, N,N-diethyl-3-(p-tolyloxy)propan-1-amine oxide]
release of p-cresol upon reduction [1]: did not lead to the release of p-cresol

CC[N+]([O-])(/C=C/COC(=O)Nc1ccccc1[N+](=O)[O-])CC [probe 32c, (E)-N,N-diethyl-3-(((2-nitrophenyl)carbamoyl)oxy)prop-1-en-1-amine oxide]
enhancement in the initial rate of reduction under hypoxic conditions (human liver microsomes): 21 fold
reactivity toward cysteine ([2]; 5 mM cysteine, phosphate buffer pH 7.4, 37° C., over 2 h): unreactive
reactivity toward glutathione ([2]; 5 mM glutathione (GSH), phosphate buffer pH 7.4, 37° C., over 2 h): unreactive
time until probe is fully reduced by diboron ([2]; B2(OH)4 1 equiv 200 μM, room temperature): ≤ 10 min

CC[N+]([O-])(/C=C/COc1ccc(C)cc1)CC [enamine N-oxide 6]
release of p-cresol upon reduction [1]: led to the release of p-cresol
stability in the presence of different metal cations [3]: Only Fe^2+ was capable of reducing enamine N-oxides

CC[N+]([O-])(/C=C/COc1ccc(F)cc1)CC [enamine N-oxide 5, (E)-N,N-diethyl-3-(4-fluorophenoxy)prop-1-en-1-amine oxide]
Yield (%) 4 (p-fluorophenol formed) ([4]; CHCl3, 0.1 M): 29%
Yield (%) 5 + 5′ (enamine N-oxide remaining) ([4]; CHCl3, 0.1 M): 45%
Yield (%) 4 (p-fluorophenol formed) ([4]; TFE, 0.1 M): <1%
Yield (%) 5 + 5′ (enamine N-oxide remaining) ([4]; TFE, 0.1 M): 96%

CC[N+]([O-])(/C=C/C(Cc1ccccc1)Oc1ccc(C)cc1)CC (stereo not shown) [enamine N-oxide S6, (E)-N,N-diethyl-4-phenyl-3-(p-tolyloxy)but-1-en-1-amine oxide]
reduction in the absence of diboron [5]: not reduced in the absence of diboron

C[N+]([O-])(/C=C/C(F)(F)Cc1cccc2ccccc12)CCCCC(=O)NCc1ccc2ccccc2c1 (stereo not shown) [enamine N-oxide S1, (E)-N-(3,3-difluoro-4-(naphthalen-1-yl)but-1-en-1-yl)-N-methyl-5-((naphthalen-2-ylmethyl)amino)-5-oxopentan-1-amine oxide]
thermal decomposition [6]: two new products were isolated in addition to the starting material
